Laboratory results from US20230295106A1 (priority 2019, published 2023).
pEC50, pIC50: −log10 of the molar value.

Tests used:
[1] = target: T1, 5-HT2C edited (accession number AAF35842.1) (Homo sapiens, UniProt P28335, I156V/I160V/N158S); test: biochemical; settings: 5-HT2C Radioligand Binding Activity
Target sequence in this assay (P28335 33-458 I156V/N158S/I160V limits assumed): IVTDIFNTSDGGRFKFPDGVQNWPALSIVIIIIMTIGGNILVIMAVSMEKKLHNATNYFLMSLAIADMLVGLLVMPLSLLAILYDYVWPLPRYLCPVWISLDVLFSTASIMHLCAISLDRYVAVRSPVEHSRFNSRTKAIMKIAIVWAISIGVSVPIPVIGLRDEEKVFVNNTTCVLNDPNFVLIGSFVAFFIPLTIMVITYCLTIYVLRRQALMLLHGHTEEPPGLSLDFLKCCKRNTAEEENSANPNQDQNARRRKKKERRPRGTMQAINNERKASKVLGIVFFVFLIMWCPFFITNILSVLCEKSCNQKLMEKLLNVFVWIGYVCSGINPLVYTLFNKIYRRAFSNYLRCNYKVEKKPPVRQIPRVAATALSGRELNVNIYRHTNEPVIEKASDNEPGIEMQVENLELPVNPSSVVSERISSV

[2] = target: T1, 5-HT2C edited (accession number AAF35842.1); test: cell-based; settings: 5-HT2C IPOne Agonism Activity
Target sequence in this assay (P28335 whole entry I156V/N158S/I160V, looked up): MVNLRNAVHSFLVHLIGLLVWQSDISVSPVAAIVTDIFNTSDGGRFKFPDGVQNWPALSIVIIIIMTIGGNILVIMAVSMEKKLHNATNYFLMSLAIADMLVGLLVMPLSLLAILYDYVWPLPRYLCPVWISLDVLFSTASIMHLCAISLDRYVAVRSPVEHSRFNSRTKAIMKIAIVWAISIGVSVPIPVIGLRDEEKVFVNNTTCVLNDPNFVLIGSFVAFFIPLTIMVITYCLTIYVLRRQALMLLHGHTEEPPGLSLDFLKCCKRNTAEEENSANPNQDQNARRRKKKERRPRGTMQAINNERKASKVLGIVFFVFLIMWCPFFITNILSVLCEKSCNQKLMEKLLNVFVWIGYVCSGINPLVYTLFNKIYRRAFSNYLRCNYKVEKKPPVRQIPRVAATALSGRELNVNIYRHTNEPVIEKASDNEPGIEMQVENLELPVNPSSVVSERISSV

[3] = target: human recombinant 5-HT2C edited receptor (accession number AAF35842.1) (Homo sapiens, UniProt P28335, I156V/N158S/I160V); test: cell-based; settings: read-out: 5-HT2C IPOne Agonism Activity
human recombinant 5-HT2C edited receptor (accession number AAF35842.1), sequence (P28335 whole entry I156V/N158S/I160V, looked up): as above

Compound | pIC50 [1] | pEC50 [2] | pEC50 [3]
COc1cc2c3c(ccn3CC(N)C2)c1 (centres unmarked) [Compound 25, 8-methoxy-5,6-dihydro-4H-pyrrolo[3,2,1-ij]quinolin-5-amine] | 5.00 to 6.00 | 5.00 to 6.00 | 
CCN(CC)C(=O)[C@@H]1C=C(c2cc(OC)cc(OC)c2)CN(C)C1 (single isomer, unassigned) [Compound 6, 5-(3,5-dimethoxyphenyl)-N,N-diethyl-1-methyl-1,2,3,6-tetrahydropyridine-3-carboxamide] | 5.00 to 6.00 | 5.00 to 6.00 | 
NC1Cc2c(F)ccc3ccn(c23)C1 (centres unmarked) [Compound 19, 7-fluoro-5,6-dihydro-4H-pyrrolo[3,2,1-ij]quinolin-5-amine] | 6.00 to 7.00 | 6.00 to 7.00 | 
CCN(CC)C(=O)[C@@H]1C=C(c2cc(OC)cc(OC)c2)CN(C)C1 (single isomer, unassigned) [Compound 5, 5-(3,5-dimethoxyphenyl)-N,N-diethyl-1-methyl-1,2,3,6-tetrahydropyridine-3-carboxamide] | 6.00 to 7.00 | 6.00 to 7.00 | 
CCN(CC)C(=O)[C@@H]1C=C(c2cccc(OC)c2)CN(C)C1 (single isomer, unassigned) [Compound 9, N,N-diethyl-5-(3-methoxyphenyl)-1-methyl-1,2,3,6-tetrahydropyridine-3-carboxamide] | 7.00 to 8.00 | 7.00 to 8.00 | 
CCN(CC)C1Cc2cccc3ccn(c23)C1 (centres unmarked) [Compound 16, N,N-diethyl-5,6-dihydro-4H-pyrrolo[3,2,1-]quinolin-5-amine] | 6.00 to 7.00 | 6.00 to 7.00 | 
NC1Cc2cc(F)cc3ccn(c23)C1 (centres unmarked) [Compound 17, 8-fluoro-5,6-dihydro-4H-pyrrolo[3,2,1-ij]quinolin-5-amine] | 6.00 to 7.00 | 6.00 to 7.00 | 
NC1Cc2c(Cl)ccc3ccn(c23)C1 (centres unmarked) [Compound 23, 7-chloro-5,6-dihydro-4H-pyrrolo[3,2,1-ij]quinolin-5-amine] | 6.00 to 7.00 | 6.00 to 7.00 | 
CCN(CC)C(=O)[C@@H]1C=C(c2ccccc2OC)CN(C)C1 (single isomer, unassigned) [Compound 8, N,N-diethyl-5-(2-methoxyphenyl)-1-methyl-1,2,3,6-tetrahydropyridine-3-carboxamide] | 5.00 to 6.00 | 5.00 to 6.00 | 
CCN(CC)C(=O)[C@@H]1C=C(c2cccc(OC)c2)CN(C)C1 (single isomer, unassigned) [Compound 10, N,N-diethyl-5-(3-methoxyphenyl)-1-methyl-1,2,3,6-tetrahydropyridine-3-carboxamide] | 6.00 to 7.00 | 6.00 to 7.00 | 
NC1Cc2cccc3ccn(c23)C1 (centres unmarked) [Compound 13, 5,6-dihydro-4H-pyrrolo[3,2,1-ij]quinolin-5-amine] | 6.00 to 7.00 | 6.00 to 7.00 | 
CN(C)C1Cc2cccc3ccn(c23)C1 (single isomer, unassigned) [Compound 15, N,N-dimethyl-5,6-dihydro-4H-pyrrolo[3,2,1-ij]quinolin-5-amine] | 6.00 to 7.00 |  | 6.00 to 7.00
CCN(CC)C(=O)[C@@H]1C=C(c2ccccc2OC)CN(C)C1 (single isomer, unassigned) [Compound 7, N,N-diethyl-5-(2-methoxyphenyl)-1-methyl-1,2,3,6-tetrahydropyridine-3-carboxamide] | 6.00 to 7.00 | 6.00 to 7.00 | 
CN(C)C1Cc2cccc3ccn(c23)C1 (single isomer, unassigned) [Compound 14, N,N-dimethyl-5,6-dihydro-4H-pyrrolo[3,2,1-ij]quinolin-5-amine] | 7.00 to 8.00 | 6.00 to 7.00 | 
NC1Cc2cc(Cl)cc3ccn(c23)C1 (centres unmarked) [Compound 21, 8-chloro-5,6-dihydro-4H-pyrrolo[3,2,1-ij]quinolin-5-amine] | 6.00 to 7.00 | 6.00 to 7.00 | 
NC1Cc2cccc3[nH]cc(c23)C1 (centres unmarked) [Compound 27, 1,3,4,5-tetrahydrobenzo[cd]indol-4-amine] | 6.00 to 7.00 | 6.00 to 7.00 | 
